Literature values, collected in US20110060040A1, “USES OF ACYLOXYALKYL CARBAMATE PRODRUGS OF TRANEXAMIC ACID” (XenoPort, Inc., priority 2009, published 2011).

How the values were obtained:
[1] = cardiopulmonary bypass surgery, prophylactic administration
[2] = patients undergoing total knee arthroplasty
[3] = human patients, prodrug given orally

SMILES	excretion (in vivo)	fraction of administered tranexamic acid metabolized (in vivo)	volume of distribution (in vivo)	oral bioavailability (oral)	reduction of post-operative bleeding [1]	reduction of total blood loss [2]	oral bioavailability of tranexamic acid [3]
NC[C@H]1CC[C@H](C(=O)O)CC1 [tranexamic acid, trans-4-(aminomethyl)-cyclohexanecarboxylic acid]	most is excreted unchanged by the kidney	Only a small fraction	9 to 12 L	ca. 30%	30-40%	up to 50%	–
CCOC(=O)OC(C)OC(=O)[C@H]1CC[C@H](CN)CC1 (relative stereo) [Kabi 2161, 1-(ethoxycarbonyl)oxyethyl trans-4-(aminomethyl)-cyclohexanecarboxylate]	–	–	–	–	–	–	markedly improved
